Measurements reported in ChEMBL document CHEMBL4316583, “In Vitro and in Vivo Antitumor Effects of Plant-Derived Miliusanes and Their Induction of Cellular Senescence” (J Med Chem, 2019).
pIC50: −log10 of the molar value. Activity calls are given as the source filed them. The calls are words filed in the database; no cut-off is given here.

Assays:
A-375 = assay: Cytotoxicity against human A375 cells assessed as cell growth inhibition after 48 hrs by sulforhodamine B assay; assay type: functional, cell-based; conditions: A-375, 48 h
HCT-116 [1] = assay: Cytotoxicity against human HCT116 cells assessed as cell growth inhibition after 48 hrs by sulforhodamine B assay; assay type: functional, cell-based; conditions: HCT-116, 48 h
A549 = assay: Cytotoxicity against human A549 cells assessed as cell growth inhibition after 48 hrs by sulforhodamine B assay; assay type: functional, cell-based; conditions: A549, 48 h
HCT-116 [2] = assay: Cytotoxicity against human HCT116 cells assessed as cell growth inhibition after 24 hrs by sulforhodamine B assay; assay type: functional, cell-based; conditions: HCT-116, 24 h
[3] = tested on: Panel NCI-60 (60 carcinoma cell lines); assay: Growth inhibition human NCI60 cells after 48 hrs by sulforhodamine B assay; assay type: functional
HCT-116 [4] = assay: Antitumor activity against human HCT116 cells xenografted in nude BALB/c mouse assessed as tumor growth inhibition at 40 mg/kg, ip administered every other day for 21 days relative to control; assay type: functional; conditions: HCT-116, ip, 504 h, read-out: TGI
Mus musculus [5] = assay: Induction of cellular senescence in BALB/c mouse xenografted with human HCT116 cells assessed as up-regulation of p16 protein expression at 20 mg/kg, administered every other day for 3 weeks by immunohistochemical analysis; assay type: functional, organism-based
[6] = Toxicity in nude BALB/c mouse xenografted with human HCT116 cells assessed as body weight loss at 20 to 40 mg/kg, administered every other day for 21 days; assay type: organism-based; conditions: in vivo, 504 h
Mus musculus [7] = assay: Induction of cellular senescence in BALB/c mouse xenografted with human HCT116 cells assessed as up-regulation of p21 protein expression at 20 mg/kg, administered every other day for 3 weeks by immunohistochemical analysis; assay type: functional, organism-based
Mus musculus [8] = assay: Effect on p27 protein expression in BALB/c mouse xenografted with human HCT116 cells at 20 mg/kg, administered every other day for 3 weeks by immunohistochemical analysis; assay type: functional, organism-based
HCT-116 [9] = assay: Antiproliferative activity against human HCT116 cells assessed as inhibition of colony formation at 0.91 to 3.64 uM after 14 days by crystal violet-staining based assay; assay type: functional, cell-based
HT-29 = assay: Growth inhibition human HT-29 cells after 72 hrs by MTS assay; assay type: functional, cell-based
HCT-116 [10] = assay: Antitumor activity against human HCT116 cells xenografted in nude BALB/c mouse assessed as tumor growth inhibition at 20 mg/kg, ip administered every other day for 21 days relative to control; assay type: functional; conditions: HCT-116, ip, 504 h, read-out: TGI
HCT-116 [11] = assay: Antiproliferative activity against human HCT116 cells xenografted in BALB/c mouse at 20 mg/kg, administered every other day for 3 weeks by Ki67-staining based assay; assay type: functional, organism-based
HCT-116 [12] = assay: Induction of cellular senescence in human HCT116 cells assessed as up-regulation of p21 protein expression at 0.2 to 0.8 ug/ml after 48 hrs by Western blot analysis; assay type: functional, cell-based
HCT-116 [13] = assay: Induction of apoptosis in human HCT116 cells assessed as viable cells at 11.5 uM after 48 hrs by annexin V/propidium iodide-double staining based flow cytometry (reference value: 88.3%); assay type: functional; conditions: HCT-116, 48 h, read-out: Activity
HCT-116 [14] = assay: Antitumor activity against human HCT116 cells xenografted in nude BALB/c mouse assessed as tumor growth inhibition at 25 mg/kg, ip administered every other day for 21 days relative to control; assay type: functional; conditions: HCT-116, ip, 504 h, read-out: TGI
HCT-116 [15] = assay: Induction of apoptosis in human HCT116 cells assessed as early apoptotic cells at 11.5 uM after 48 hrs by annexin V/propidium iodide-double staining based flow cytometry (reference value: 4.8%); assay type: functional
HCT-116 [16] = assay: Induction of apoptosis in human HCT116 cells assessed as late apoptotic cells at 11.5 uM after 48 hrs by annexin V/propidium iodide-double staining based flow cytometry (reference value: 4.6%); assay type: functional
HCT-116 [17] = assay: Induction of cellular senescence in human HCT116 cells at 11.5 uM after 48 hrs by SA-beta-gal-staining based assay; assay type: functional, cell-based
HCT-116 [18] = assay: Induction of apoptosis in human HCT116 cells assessed as necrotic cells at 11.5 uM after 48 hrs by annexin V/propidium iodide-double staining based flow cytometry (reference value: […]); assay type: functional
[19] = Ratio of IC50 for human A2780/TAX cells to IC50 for human A2780 cells after 72 hrs by MTS assay; assay type: functional
HCT-116 [20] = assay: Growth inhibition human HCT116 cells after 72 hrs by MTS assay; assay type: functional, cell-based; conditions: HCT-116, 72 h
[21] = Ratio of IC50 for human A2780DDP cells to IC50 for human A2780 cells after 72 hrs by MTS assay; assay type: functional
A2780 = assay: Growth inhibition human A2780 cells after 72 hrs by MTS assay; assay type: functional, cell-based; conditions: A2780, 72 h
[22] = Ratio of IC50 for human HCT116/VP35 cells to IC50 for human HCT116 cells after 72 hrs by MTS assay; assay type: functional
[23] = Ratio of IC50 for human HCT116/VM46 cells to IC50 for human HCT116 cells after 72 hrs by MTS assay; assay type: functional
HCT-116 [24] = assay: Induction of cellular senescence in human HCT116 cells assessed as up-regulation of p21 protein expression at 0.1 to 0.4 ug/ml after 48 hrs by Western blot analysis; assay type: functional, cell-based
HCT-116 [25] = assay: Antiproliferative activity against human HCT116 cells assessed as inhibition of colony formation at 0.58 to 2.31 uM after 14 days by crystal violet-staining based assay; assay type: functional, cell-based

Row | Structure (SMILES) | pIC50 (A-375) | pIC50 (HCT-116 [1]) | pIC50 (A549) | pIC50 (HCT-116 [2]) | other results
1 | COC(=O)C[C@@]1(C/C=C(\C)CCC=C(C)C)C[C@H](OC(C)=O)C=CC1=O | 4.98 | 4.89 | 4.61 | – | –
2 | COC(=O)C[C@@]1(C/C=C(\C)CCC=C(C)C)C[C@H](OC(C)=O)C=C[C@H]1O | 4.94 | 4.74 | 4.74 | – | –
3 | CC(=O)O[C@@H]1C=CC(=O)[C@@]2(CC(=O)O[C@@H]2/C=C(\C)CCCC(C)C=O)C1 (some centres undefined) | – | 5.26 | – | 5.14 | –
4 | CO[C@@H]1CC(=O)[C@@]2(CC(=O)O[C@@H]2/C=C(\C)CCC=C(C)C)C[C@@H]1O | 5.43 | 5.46 | 5.36 | – | GI50 [3]: 0.03 to 4.79 µM
5 | CC(=O)O[C@@H]1C=CC(=O)[C@@]2(CC(=O)O[C@@H]2/C=C(\C)CC/C=C(\C)CO)C1 | – | 5.23 | – | 5.16 | –
6 | CC(=O)O[C@@H]1C=CC(=O)[C@@]2(CC(=O)O[C@@H]2/C=C(\C)C/C=C/C(C)(C)O)C1 | 5.37 | 5.38 | 4.68 | – | –
7 | CC(=O)O[C@H]1C[C@]2(CC(=O)O[C@@H]2/C=C(\C)CCC=C(C)C)C(=O)C[C@H]1Nc1ccccc1 | – | 5.60 | – | 5.53 | inhibition in vivo at 40 mg/kg (HCT-116 [4]): 36.4%; Activity (Mus musculus [5]): Active; Activity [6]: Non-Toxic; Activity (Mus musculus [7]): Active; Activity (Mus musculus [8]): inactive; Activity (HCT-116 [9]): Active; growth inhibition (GI) (HT-29): Active; inhibition in vivo at 20 mg/kg (HCT-116 [10]): 36.4%; Activity (HCT-116 [11]): Active; Activity (HCT-116 [12]): Active
8 | CC(=O)O[C@@H]1C=CC(=O)[C@@](C/C=C(\C)CCC=C(C)C)(CC(=O)O)C1 | < 4.24 | < 4.24 | < 4.24 | – | –
9 | CO[C@H]1CC(=O)[C@@]2(CC(=O)O[C@@H]2/C=C(\C)CCC=C(C)C)C[C@@H]1O | 5.01 | 4.76 | 4.74 | – | –
10 | CC(=O)O[C@H]1C[C@]2(CC(=O)O[C@@H]2/C=C(\C)CCC=C(C)C)C(OC(=O)c2ccccc2)=C[C@H]1N(C(=O)c1ccccc1)c1ccccc1 | – | < 4.52 | – | < 4.52 | –
11 | O=c1[nH]cc(F)c(=O)[nH]1 [FLUOROURACIL] | – | – | – | – | viability at 11.5 µM (HCT-116 [13]): 78.3%; inhibition in vivo at 25 mg/kg (HCT-116 [14]): 32.5%; Activity (HCT-116 [15]): 4.7%; Activity (HCT-116 [16]): 12.6%; Activity (HCT-116 [17]): Active; Activity (HCT-116 [18]): 4.4%
12 | CC(=O)O[C@@H]1C=CC(=O)[C@@]2(CC(=O)O[C@@H]2/C=C(\C)CCC=C(CO)CO)C1 | – | 4.86 | – | 4.89 | –
13 | CC(=O)O[C@@H]1CCC(=O)[C@@]2(CC(=O)O[C@@H]2CC(C)CCCC(C)C)C1 (some centres undefined) | – | < 4.52 | – | < 4.52 | –
14 | CC(=O)O[C@H]1C[C@]2(CC(=O)O[C@@H]2/C=C(\C)CCC=C(C)C)C(=O)C[C@H]1N(C(=O)c1ccccc1)c1ccccc1 | – | 4.98 | – | 4.85 | –
15 | CC(=O)O[C@@H]1C=CC(=O)[C@@]2(CC(=O)O[C@@H]2CC(C)CCCC(C)C)C1 (some centres undefined) | – | 5.71 | – | 5.71 | –
16 | CC(=O)O[C@@H]1CC[C@@H](OC(C)=O)[C@@]2(CC(=O)O[C@@H]2/C=C(\C)CCC=C(C)C)C1 | – | < 4.52 | – | < 4.52 | –
17 | CC(C)=CCC/C(C)=C/[C@H]1OC(=O)C[C@]12C[C@H](O)C=C[C@H]2O | < 4.19 | < 4.19 | < 4.19 | – | –
18 | COc1cc([C@@H]2c3cc4c(cc3[C@@H](O[C@@H]3O[C@@H]5CO[C@@H](C)O[C@H]5[C@H](O)[C@H]3O)[C@H]3COC(=O)[C@H]23)OCO4)cc(OC)c1O [ETOPOSIDE] | – | – | – | – | Ratio IC50 [19]: 1.7; pIC50 (HCT-116 [20]): 6.39; Ratio IC50 [21]: 2.5; pIC50 (A2780): 7.15; Ratio IC50 [22]: 7.4; Ratio IC50 [23]: 13.5
19 | CC(=O)O[C@@H]1C=CC(=O)[C@@]2(CC(=O)O[C@@H]2/C=C(\C)CCC=C(C)C)C1 | 5.78 | 5.57 to 5.71 | 5.16 | 5.40 | Activity (HCT-116 [24]): Active; GI50 [3]: 0.03 to 4.79 µM; Activity (HCT-116 [25]): Active
20 | COC(=O)[C@H](O)[C@@]1(C/C=C(\C)CCC=C(C)C)C[C@H](OC(C)=O)C=CC1=O | 5.44 | 5.39 | 5.15 | – | –
21 | CC(=O)O[C@@H]1CCC(=O)[C@@]2(CC(=O)O[C@@H]2/C=C(\C)CCC=C(C)C)C1 | – | < 4.52 | – | < 4.52 | –
22 | CC(=O)O[C@@H]1C=C[C@@H](O)[C@@]2(CC(=O)O[C@@H]2/C=C(\C)CCC=C(C)C)C1 | 5.14 | 4.88 | 4.74 | – | –
23 | CC(=O)O[C@@H]1CC[C@@H](O)[C@@]2(CC(=O)O[C@@H]2/C=C(\C)CCC=C(C)C)C1 | – | < 4.52 | – | < 4.52 | –
24 | CC(=O)O[C@H]1C[C@]2(CC(=O)O[C@@H]2/C=C(\C)CCC=C(C)C)C(=O)C[C@@H]1Nc1ccccc1 | – | 5.58 | – | 5.46 | inhibition in vivo at 40 mg/kg (HCT-116 [4]): -8.6%; Activity [6]: Non-Toxic; inhibition in vivo at 20 mg/kg (HCT-116 [10]): 31.1%
